Results taken from ChEMBL document CHEMBL3046728, “Modifications to five-substituted 3,3-diethyl-4,5-dihydro-2(3H)-furanones en route to novel muscarinic receptor ligands” (Med Chem Res, 2011).

Target: Muscarinic acetylcholine receptor
Assay: Displacement of [3H]-QNB from muscarnic receptor in Rattus norvegicus (rat) cerebral cortex after 90 min by scintillation counting analysis
Type: tissue-based

Question: CCC1(CC)CC(CN2CCN(C(c3ccccc3)c3ccccc3)CC2)OC1=O (stereo unspecified) was tested. Which IC50 did it give?
Answer: 340 nM

Target: Muscarinic acetylcholine receptor (Rattus norvegicus) (UniProt P08482+P08483+P08485+P08911+P10980)
Assay: Displacement of [3H]-QNB from muscarnic receptor in Rattus norvegicus (rat) cerebral cortex at 10 uM after 90 min by scintillation counting analysis
Type: tissue-based

Question: For CCC1(CC)CC(CN2CCN(C(c3ccccc3)c3ccccc3)CC2)OC1=O (stereo unspecified), which inhibition is on record?
Answer: 97%

Question: CCC1(CC)CC(CN2CCc3ccccc3C2)OC1=O (stereo unspecified) was tested. Which inhibition did it give?
Answer: 44%

Question: With CCC1(CC)CC(CN2CCN(c3ccccc3C#N)CC2)OC1=O (stereo unspecified) as the molecule, how does the inhibition read?
Answer: 31%

Question: With CCC1(CC)CC(CN2CCN(c3cccc(OC)c3)CC2)OC1=O (stereo unspecified) as the molecule, how does the inhibition read?
Answer: 9%

Question: For CCC1(CC)CC(CN2CCN(c3ccccc3OC)CC2)OC1=O (stereo unspecified), which inhibition is on record?
Answer: 32%

Question: Which inhibition does the source give for CCC1(CC)CC(CN2CCN(c3ccccc3)CC2)OC1=O (stereo unspecified) here?
Answer: 16%

Question: For CCC1(CC)CC(CN2CCC(c3nc4ccccc4[nH]3)CC2)OC1=O (stereo unspecified), which inhibition is on record?
Answer: 46%

Question: CCC1(CC)CC(CN2CCN(c3ccc(O)cc3)CC2)OC1=O (stereo unspecified) was tested. Which inhibition did it give?
Answer: 7%

Question: For CCC1(CC)CC(CN2CCN(c3ccc([N+](=O)[O-])cc3)CC2)OC1=O (stereo unspecified), which inhibition is on record?
Answer: 18%

Question: For CCC1(CC)CC(CN2CCC(c3ccccc3)CC2)OC1=O (stereo unspecified), which inhibition is on record?
Answer: 68%

Question: With CCC1(CC)CC(COC(=O)Nc2ccc(N3CCCCC3)cc2)OC1=O (stereo unspecified) as the molecule, how does the inhibition read?
Answer: 31%

Question: For CCC1(CC)CC(CN2CCN(C(=O)c3ccccc3)CC2)OC1=O (stereo unspecified), which inhibition is on record?
Answer: 5%

Question: How did the inhibition turn out when CCC1(CC)CC(CN2CCN(c3ccc(C#N)cc3)CC2)OC1=O (stereo unspecified) was run?
Answer: 18%

Question: How did the inhibition turn out when CCC1(CC)CC(CN2CCN(c3ccc(OC)cc3)CC2)OC1=O (stereo unspecified) was run?
Answer: 26%

Question: For CCC1(CC)CC(CN2CCN(c3ccccc3O)CC2)OC1=O (stereo unspecified), which inhibition is on record?
Answer: 46%
